# Test results taken from ChEMBL document CHEMBL1201861, “Genomics of Drug Sensitity in Cancer screening data, Wellcome Trust Sanger Institute”.
# pIC50: −log10 of the molar value.
# Experiments:
# Experiment in all cases: cells
# Format in all cases: functional, cell-based
# Details in all cases: Homo sapiens
# MEL-HO = system: MEL-HO
# Description: SANGER: Inhibition of human MEL-HO cell growth in a cell viability assay.
# MOLT-13 = system: MOLT-13;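 note: IC50 for suppression of MOLT-13 cell growth, read out with a cell viability assay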
# Description: SANGER: Inhibition of human MOLT-13 cell growth in a cell viability assay.
# EFO-21 = system: EFO-21;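 note: growth inhibition of EFO-21 cells measured with a viability assay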
# Description: SANGER: Inhibition of human EFO-21 cell growth in a cell viability assay.
# KU-19-19 = system: KU-19-19
# Description: SANGER: Inhibition of human KU-19-19 cell growth in a cell viability assay.
# SNU-423 = system: SNU-423
# Description: SANGER: Inhibition of human SNU-423 cell growth in a cell viability assay.
# PA-1 = system: PA-1;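 note: IC50 for suppression of PA-1 cell proliferation, determined with a cell viability read-out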
# Description: SANGER: Inhibition of human PA-1 cell growth in a cell viability assay.
# COLO-679 = system: COLO-679
# Description: SANGER: Inhibition of human COLO-679 cell growth in a cell viability assay.
# Ca-Ski = system: Ca-Ski;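 note: cell viability assay measuring inhibition of Ca-Ski cell growth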
# Description: SANGER: Inhibition of human Ca-Ski cell growth in a cell viability assay.
# AN3-CA = system: AN3-CA;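 note: growth inhibition of human AN3-CA cells measured by a cell viability assay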
# Description: SANGER: Inhibition of human AN3-CA cell growth in a cell viability assay.
# A 172 = system: A 172;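 note: growth inhibition of A172 cells, measured with a cell viability readout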
# Description: SANGER: Inhibition of human A172 cell growth in a cell viability assay.
# COLO-792 = system: COLO-792
# Description: SANGER: Inhibition of human COLO-792 cell growth in a cell viability assay.
# NCI-H630 = system: NCI-H630;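 note: growth inhibition of NCI-H630 cells, read out with a cell viability assay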
# Description: SANGER: Inhibition of human NCI-H630 cell growth in a cell viability assay.
# NCI-H441 = system: NCI-H441;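 note: growth inhibition of NCI-H441 cells, read out with a cell viability assay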
# Description: SANGER: Inhibition of human NCI-H441 cell growth in a cell viability assay.
# A673 = system: A673;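 note: growth inhibition of human A673 cells, read out through a cell viability assay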
# Description: SANGER: Inhibition of human A673 cell growth in a cell viability assay.
# PC-3 = system: PC-3;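 note: cell viability assay measuring growth inhibition of PC-3 cells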
# Description: SANGER: Inhibition of human PC-3 cell growth in a cell viability assay.
# NCI-H1703 = system: NCI-H1703;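 note: growth inhibition of NCI-H1703 cells, read out via a cell viability assay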
# Description: SANGER: Inhibition of human NCI-H1703 cell growth in a cell viability assay.
# YKG-1 = system: YKG-1;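 note: cell growth inhibition, read out with a viability assay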
# Description: SANGER: Inhibition of human YKG-1 cell growth in a cell viability assay.
# HCC1954 = system: HCC1954;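 note: growth inhibition of human HCC1954 cells, read out with a cell viability assay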
# Description: SANGER: Inhibition of human HCC1954 cell growth in a cell viability assay.
# EFM-19 = system: EFM-19;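 note: growth inhibition of human EFM-19 cells, measured in a cell viability assay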
# Description: SANGER: Inhibition of human EFM-19 cell growth in a cell viability assay.
# T47D = system: T47D;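 note: growth inhibition of human T47D cells, measured with a cell viability assay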
# Description: SANGER: Inhibition of human T47D cell growth in a cell viability assay.
# NB17 = system: NB17;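 note: growth inhibition of NB17 cells, read out with a cell viability assay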
# Description: SANGER: Inhibition of human NB17 cell growth in a cell viability assay.
# OVCAR-5 = system: OVCAR-5;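 note: growth inhibition of human OVCAR-5 cells, read out with a cell viability assay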
# Description: SANGER: Inhibition of human OVCAR-5 cell growth in a cell viability assay.
# PC-14 = system: PC-14;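 note: cell viability assay measuring inhibition of PC-14 cell growth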
# Description: SANGER: Inhibition of human PC-14 cell growth in a cell viability assay.
# CHP-212 = system: CHP-212
# Description: SANGER: Inhibition of human CHP-212 cell growth in a cell viability assay.
# SKG-IIIa = system: SKG-IIIa;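 note: cell growth inhibition, read out with a cell viability assay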
# Description: SANGER: Inhibition of human SKG-IIIa cell growth in a cell viability assay.
# SW48 = system: SW48;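 note: growth inhibition of SW48 cells, read out with a cell viability assay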
# Description: SANGER: Inhibition of human SW48 cell growth in a cell viability assay.
# HSC-2 = system: HSC-2;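 note: growth inhibition of human HSC-2 cells, read out by a cell viability assay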
# Description: SANGER: Inhibition of human HSC-2 cell growth in a cell viability assay.
# NCI-H2347 = system: NCI-H2347;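 note: growth inhibition of the cell line, read out with a cell viability assay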
# Description: SANGER: Inhibition of human NCI-H2347 cell growth in a cell viability assay.
# HCC70 = system: HCC70;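 note: cell viability assay measuring how strongly the compound suppresses proliferation of HCC70 cells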
# Description: SANGER: Inhibition of human HCC70 cell growth in a cell viability assay.
# C3A = system: C3A;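 note: growth inhibition of C3A human cells, quantified with a cell viability readout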
# Description: SANGER: Inhibition of human C3A cell growth in a cell viability assay.
# A2780 = system: A2780;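 note: growth inhibition of A2780 cells, read out with a cell viability assay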
# Description: SANGER: Inhibition of human A2780 cell growth in a cell viability assay.
# A-375 = system: A-375;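 note: growth inhibition of A375 cells, read out with a cell viability assay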
# Description: SANGER: Inhibition of human A375 cell growth in a cell viability assay.
# MIA PaCa-2 = system: MIA PaCa-2;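 note: growth inhibition of MIA PaCa-2 cells, read out with a cell viability assay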
# Description: SANGER: Inhibition of human MIA-PaCa-2 cell growth in a cell viability assay.
# ME-180 = system: ME-180;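 note: cell viability assay measuring growth inhibition of ME-180 cells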
# Description: SANGER: Inhibition of human ME-180 cell growth in a cell viability assay.
# NB7 = system: NB7;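 note: growth inhibition of NB7 cells, read out with a cell viability assay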
# Description: SANGER: Inhibition of human NB7 cell growth in a cell viability assay.
# KP-4 = system: KP-4;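 note: human KP-4 cells, with growth inhibition read out through a cell viability assay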
# Description: SANGER: Inhibition of human KP-4 cell growth in a cell viability assay.
# G-361 = system: G-361
# NY = system: NY
# Description: SANGER: Inhibition of human NY cell growth in a cell viability assay.
# S-117 = system: S-117
# Description: SANGER: Inhibition of human S-117 cell growth in a cell viability assay.
# Panc1005 = system: Panc1005;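 note: growth inhibition of human PANC-10-05 cells, measured by a cell viability assay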
# Description: SANGER: Inhibition of human PANC-10-05 cell growth in a cell viability assay.
# KYSE-180 = system: KYSE-180;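 note: growth inhibition of KYSE-180 cells, read out with a cell viability assay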
# Description: SANGER: Inhibition of human KYSE-180 cell growth in a cell viability assay.
# NCI-H1563 = system: NCI-H1563;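 note: growth inhibition of human NCI-H1563 cells, read out with a cell viability assay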
# Description: SANGER: Inhibition of human NCI-H1563 cell growth in a cell viability assay.
# Detroit 562 = system: Detroit 562;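 note: growth inhibition of human Detroit 562 cells, read out by a cell viability assay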
# Description: SANGER: Inhibition of human Detroit562 cell growth in a cell viability assay.
# KYSE-70 cell line = system: KYSE-70 cell line;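 note: cell viability assay read-out, with IC50 expressing suppression of KYSE-70 cell growth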
# Description: SANGER: Inhibition of human KYSE-70 cell growth in a cell viability assay.
# AU565 = system: AU565;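 note: cell viability assay measuring growth inhibition of human AU565 cells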
# Description: SANGER: Inhibition of human AU565 cell growth in a cell viability assay.
# SCC-4 = system: SCC-4;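 note: growth inhibition of human SCC-4 cells, read out as cell viability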
# Description: SANGER: Inhibition of human SCC-4 cell growth in a cell viability assay.
# DK-MG = system: DK-MG;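 note: growth inhibition of DK-MG cells, read out with a cell viability assay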
# Description: SANGER: Inhibition of human DK-MG cell growth in a cell viability assay.
# PANC-08-13 = system: PANC-08-13;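 note: cell growth inhibition, measured with a cell viability assay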
# Description: SANGER: Inhibition of human PANC-08-13 cell growth in a cell viability assay.
# BHT-101 = system: BHT-101
# Description: SANGER: Inhibition of human BHT-101 cell growth in a cell viability assay.
compound,measurement,setting,value
Cn1cc(/C=C2\C(=O)Nc3cccnc32)c2ccccc21,pIC50,MEL-HO,< 5.70
same,pIC50,MOLT-13,< 5.70
same,pIC50,EFO-21,< 5.70
same,pIC50,KU-19-19,< 5.70
same,pIC50,SNU-423,< 5.70
same,pIC50,PA-1,< 5.70
same,pIC50,COLO-679,< 5.70
same,pIC50,Ca-Ski,< 5.70
same,pIC50,AN3-CA,< 5.70
same,pIC50,A 172,< 5.70
same,pIC50,COLO-792,< 5.70
same,pIC50,NCI-H630,< 5.70
same,pIC50,NCI-H441,< 5.70
same,pIC50,A673,< 5.70
same,pIC50,PC-3,< 5.70
same,pIC50,NCI-H1703,6.52
same,pIC50,YKG-1,< 5.70
same,pIC50,HCC1954,< 5.70
same,pIC50,EFM-19,< 5.70
same,pIC50,T47D,< 5.70
same,pIC50,NB17,< 5.70
same,pIC50,OVCAR-5,< 5.70
same,pIC50,PC-14,< 5.70
same,pIC50,CHP-212,< 5.70
same,pIC50,SKG-IIIa,< 5.70
same,pIC50,SW48,< 5.70
same,pIC50,HSC-2,< 5.70
same,pIC50,NCI-H2347,< 5.70
same,pIC50,HCC70,< 5.70
same,pIC50,C3A,< 5.70
same,pIC50,A2780,< 5.70
same,pIC50,A-375,< 5.70
same,pIC50,MIA PaCa-2,< 5.70
same,pIC50,ME-180,< 5.70
same,pIC50,NB7,5.70
same,pIC50,KP-4,< 5.70
same,pIC50,G-361,6.68
same,pIC50,NY,< 5.70
same,pIC50,S-117,< 5.70
same,pIC50,Panc1005,< 5.70
same,pIC50,KYSE-180,< 5.70
same,pIC50,NCI-H1563,< 5.70
same,pIC50,Detroit 562,< 5.70
same,pIC50,KYSE-70 cell line,< 5.70
same,pIC50,AU565,< 5.70
same,pIC50,SCC-4,< 5.70
same,pIC50,DK-MG,< 5.70
same,pIC50,PANC-08-13,< 5.70
same,pIC50,BHT-101,< 5.70
COc1cc(Nc2c(C#N)cnc3cc(OCCCN4CCN(C)CC4)c(OC)cc23)c(Cl)cc1Cl [BOSUTINIB],pIC50,MEL-HO,< 5.70
same,pIC50,MOLT-13,< 5.70
same,pIC50,EFO-21,< 5.70
same,pIC50,KU-19-19,< 5.70
same,pIC50,SNU-423,< 5.70
same,pIC50,PA-1,< 5.70
same,pIC50,COLO-679,< 5.70
same,pIC50,Ca-Ski,< 5.70
same,pIC50,AN3-CA,< 5.70
same,pIC50,A 172,< 5.70
same,pIC50,COLO-792,< 5.70
same,pIC50,NCI-H630,< 5.70
same,pIC50,NCI-H441,< 5.70
same,pIC50,A673,< 5.70
same,pIC50,PC-3,< 5.70
same,pIC50,NCI-H1703,< 5.70
same,pIC50,YKG-1,< 5.70
same,pIC50,HCC1954,< 5.70
same,pIC50,EFM-19,< 5.70
same,pIC50,T47D,< 5.70
same,pIC50,NB17,< 5.70
same,pIC50,OVCAR-5,< 5.70
same,pIC50,PC-14,5.89
same,pIC50,CHP-212,< 5.70
same,pIC50,SKG-IIIa,< 5.70
same,pIC50,SW48,< 5.70
same,pIC50,HSC-2,< 5.70
same,pIC50,NCI-H2347,< 5.70
same,pIC50,HCC70,< 5.70
same,pIC50,C3A,< 5.70
same,pIC50,A2780,< 5.70
same,pIC50,A-375,5.82
same,pIC50,MIA PaCa-2,< 5.70
same,pIC50,ME-180,< 5.70
same,pIC50,NB7,7.08
same,pIC50,KP-4,< 5.70
same,pIC50,G-361,< 5.70
same,pIC50,NY,< 5.70
same,pIC50,S-117,< 5.70
same,pIC50,Panc1005,< 5.70
same,pIC50,KYSE-180,< 5.70
same,pIC50,NCI-H1563,< 5.70
same,pIC50,Detroit 562,< 5.70
same,pIC50,KYSE-70 cell line,< 5.70
same,pIC50,AU565,< 5.70
same,pIC50,SCC-4,< 5.70
same,pIC50,DK-MG,< 5.70
same,pIC50,PANC-08-13,< 5.70
same,pIC50,BHT-101,6.33
